The results in this text go back to patent US20240390413A1, “POLYMERS OBTAINED BY THE REACTION OF A PHENOLIC COMPOUND AND A CARBONYL COMPOUND AS ANTI-SARS-COV-2 AGENTS” (BASF SE, priority 2021, published 2024).

Like-named read-outs stand apart in the source and are kept apart here.

Assay [1] concerns SARS-CoV-2. The assay is classed as cell-based. The note with it: Calu3 cells; formulations A-1 to A-6 (1,000 to 0 μg/ml condensation product); Camostat 100 μM or 10 μM as control.
Assay [2] deals with SARS-CoV-2. In kind it is cell-based. The note with it: precision cut human lung slices; 1, 10 or 100 μg/ml; water control.

Turning to `CN(C)C(=O)COC(=O)Cc1ccc(OC(=O)c2ccc(NC(=N)N)cc2)cc1` [Camostat], the viral titer result is given as “reduction observed” in the assay with SARS-CoV-2 [1] and “reduced the viral titer in a dose-dependent manner” in the assay with SARS-CoV-2 [2].
